{"source": "patent US20260232684A1", "about": "“FLT3 INHIBITORS AND METHODS OF USING THE SAME” (BIOVENTURES, LLC, priority 2023, published 2026)", "key": {"[1]": {"test_system": "Ba/F3 FLT3-ITD F691M line", "test": "Cell viability, Ba/F3 FLT3-ITD F691M gatekeeper mutant", "format": "cell-based", "conditions": "IC50, 48 hours, CellTiter GLO", "description": "(§1) FIG. 3. Molecular docking study of compound 1 and impact of the most common gatekeeper variants in the human kinome on activity toward […]. […] The dim FLT3 active model was built using 1PKG (KIT) as a reference using Prime (Schrodinger®). The complex of active FLT3 bound to 1 was minimized by Embrace (Schrodinger®). […] Cells were treated with inhibitor at increasing log doses (0.1 nM-10 μM) for 48 hours. Cell viability was analyzed through CellTiter GLO.\n(§2) To further investigate the possibility of a hydrophobic cage interaction and its contribution to the selectivity of compound 1, we assessed the impact of substitutions of the native phenylalanine at position 691 with the other residues most commonly found at this position in the human kinome (methionine, threonine, isoleucine, or valine). Ba/F3 cells transformed with FLT3-ITD or with FLT3-ITD substitutions at position 691 were assessed for sensitivity to compound 1 (FIG. 3C).\n(§3) Exponentially growing cells (1×10^3-1×10^4 cells) were plated in triplicate in a 96-well plate with 0.1 mL of RPMI 1640+10% (vol/vol) FBS. Each triplicate was either dosed with drug or DMSO vehicle control. Drug dosing was completed at log doses ranging from 0.1 nM-10 μM. Cell viability was assessed after 48 hours using CellTiter GLO (Promega). Viability values were normalized to the vehicle control average. Numerical IC50 values were calculated in GraphPad Prism 7. […]"}, "[2]": {"test_system": "MV-4-11 cells (FLT3-ITD-expressing)", "test": "Cell viability assay (CellTiter GLO), MV-4-11", "format": "cell-based, human", "conditions": "MV-4-11, 48 hours", "description": "FIG. 1. […] Cells were treated with inhibitor at increasing log doses (0.1 nM-10 μM) for 48 hours. Cell viability was analyzed through CellTiter GLO. […] Cells were exposed to increasing amounts of each drug for 2 hours. GAPDH1 represents loading control for phospho-ERK and ERK blots. GAPDH2 represents loading control for phosphor-STAT5, STAT5, phospho-S6 and S6. Each experiment was completed in triplicate. Representative images are shown.\nMV-4-11 and parental Molm-14 cells were a gift from Dr. Scott Kogan (University of California, San Francisco). HL60 and K562 cell lines were obtained from Charles Sawyers. […] Stable Ba/F3 lines were generated by retroviral infection as previously described (5). All cell lines were tested to be mycoplasma free and human cell lines were authenticated through STR profiling completed at the University of California, Berkeley.\nEach triplicate was either dosed with drug or DMSO vehicle control. Drug dosing was completed at log doses ranging from 0.1 nM-10 μM. Cell viability was assessed after 48 hours using CellTiter GLO (Promega). Viability values were normalized to the vehicle control average. Numerical IC50 values were calculated in GraphPad Prism 7."}, "[3]": {"test_system": "Ba/F3 FLT3-ITD with Thr, Ile, or Val gatekeeper residues", "test": "Cell viability, Ba/F3 FLT3-ITD with Thr, Ile or Val gatekeeper", "format": "cell-based", "conditions": "other gatekeeper mutants (Thr, Ile, Val) compared with F691M", "description": "as §1, §2, §3"}, "[4]": {"test_system": "Molm-14 F691L cells stably expressing firefly luciferase", "test": "Circulating tumor model, Molm14 F691L luciferase", "format": "in vivo", "description": "FIG. 7. […] Molm14 F691L stably expressing FLuc9 were engrafted in mice through tail vein injection. Mice were imaged once every three days.\nMolm-14 F691L cells stably expressing firefly luciferase were injected into the tail vein of NSG mice and tumor growth was monitored through bioluminescence."}, "FLT3 D835Y": {"target": "FLT3 D835Y (Homo sapiens, UniProt P36888, D835Y)", "test": "Enzyme kinetic analysis (5-FAM microfluidic assay), FLT3 D835Y", "format": "biochemical", "conditions": "variable ATP and inhibitor concentrations", "description": "FIG. 14. Enzyme kinetic analysis of compound 1 and 2 against FLT3 and FLT3 D835Y. The 5-FAM labeled microfluidic assay was utilized and all the activities were measured using Caliper EZ Reader II with a 12-sipper chip. In the presence of variable concentrations of compound 1 or 2, phosphorylation activities of FLT3 and FLT3 D835Y were measured at different level of ATP within certain time durations.\nTo further assess putative binding modes of compounds 1 and 2, enzyme kinetic analyses were performed."}}}
{"smiles": "CN(C)CCNc1ncc(F)c(-c2cnc3cc(-c4cnn(C)c4)ccn23)n1", "note": "[Compound 1]", "values": [{"measurement": "loss of activity relative to the Ba/F3 FLT3-ITD line", "setting": "[1]", "value": "~100", "unit": "fold"}, {"measurement": "activity in cell viability assay (IC50, FIG. 1A), in words", "setting": "[2]", "value": "activity comparable to quizartinib and superior to gilteritinib"}, {"measurement": "loss of activity relative to the Ba/F3 FLT3-ITD line, in words", "setting": "[3]", "value": "an even greater impact"}]}
{"smiles": "CC(C)(C)c1cc(NC(=O)Cc2ccc(-c3cnc4cc(-c5cnn(CCN6CCOCC6)c5)ccc4n3)cc2)no1", "note": "[Compound 2, N-(5-(tert-butyl)isoxazol-3-yl)-2-(4-(6-(1-(2-morpholinoethyl)-1H-pyrazol-4-yl)quinoxalin-2-yl)phenyl) acetamide]", "values": [{"measurement": "tumor growth compared to gilteritinib", "setting": "[4]; both doses of compound 2 (5 or 10 mg/kg) vs gilteritinib 33 mg/kg", "value": "statistically significant difference compared to gilteritinib"}, {"measurement": "tumor growth (bioluminescence), in words", "setting": "[4]; daily oral gavage 14 days, compound 2 5 or 10 mg/kg, gilteritinib 33 mg/kg, vs vehicle control", "value": "nearly halt all tumor growth"}, {"measurement": "binding mode / inhibition model from enzyme kinetics", "setting": "FLT3 D835Y", "value": "intermediate conformation between type 1 and type 2"}, {"measurement": "activity in cell viability assay (IC50, FIG. 1A), in words", "setting": "[2]", "value": "activity comparable to quizartinib and superior to gilteritinib"}]}
